Our source for the IC50 values is patent US10961238B2, “Modulators of hedgehog (Hh) signaling pathway” (E-THERAPEUTICS PLC, priority 2016, dated 2021).

The term IC50 denotes the concentration needed to halve the response being measured.

In the assay the test system is C3H10T1/2 cells. The experiment in a line: C3H assay: differentiation of C3H10T1/2 cells by mSHH, measurement of alkaline phosphatase. The class given is cell-based, mouse. The note with it: Mus musculus, C3H 10T1/2; C3H10T1/2 cells stimulated with mSHH for 72 hours; alkaline phosphatase activity; read-out: IC50 Ranges.
With `CC(C)N(CC(=O)N1CC(S(=O)(=O)N2CCC(c3coc4cccnc34)CC2)C1)C(C)C` [Compound 330, 2-[di(propan-2-yl)amino]-1-[3-(4-furo[3,2-b]pyridin-3-ylpiperidin-1-yl)sulfonylaze-tidin-1-yl]ethanone], the IC50 was in the range of 10 to 100 nM.

Consider `N#Cc1ccc(C2CCN(S(=O)(=O)C3CN(C(=O)NC4(C(F)(F)F)CC4)C3)CC2)cc1` [Compound 331, 3-[4-(4-cyanophenyl)piperidin-1-yl]sulfonyl-N-[1 (trifluoromethyl)cyclopropyl] azetidine-1-carboxamide], for which the IC50 lay within 10 to 100 nM.

As to `C[C@@H](NC(=O)N1CC(S(=O)(=O)N2CCC(c3c[nH]c4ncccc34)CC2)C1)C(F)(F)F` [Compound 332, 3-[4-(1H-pyrrolo [2,3-b]pyridin-3-yl)piperidin-1-yl]sulfonyl-N-[(2R)-1,1,1-trifluoropropan-2-yl]azetidine-1-carboxamide], the IC50 lay within 10 to 100 nM.

As for `N#Cc1ccc(NC(=O)N2CC(S(=O)(=O)N3CCC(c4c[nH]c5ncccc45)CC3)C2)cc1` [Compound 335, N-(4-cyanophenyl)-3-[4-(1H-pyrrolo [2,3-b]pyridin-3-yl)piperidin-1-yl]sulfonylaze-tidine-1-carboxamide], the concentration for half-maximal inhibition (IC50) was 10 to 100 nM.

With `CC(C)(C)OC(=O)NC1CC(S(=O)(=O)N2CCC(c3c[nH]c4ncccc34)CC2)C1` (stereo not shown) [Compound 336, tert-butyl N-[3-[4-(1H-pyrrolo[2,3-b]pyridin-3-yl)piperidin-1-yl]sulfonylcyclobutyl] carbamate], the concentration for half-maximal inhibition (IC50) was 10 to 100 nM.

On to `O=S(=O)(C1CN(c2nc3ccccc3s2)C1)N1CCC(c2ccncc2)CC1` [Compound 337, 2-[3-(4-pyridin-4-ylpiperidin-1-yl)sulfonylaze-tidin-1-yl]-1,3-benzothiazole], for which the IC50 was in the range of 100 to 1000 nM.

As to `O=S(=O)(C1CN(c2nc3ccccc3o2)C1)N1CCC(c2c[nH]c3ncccc23)CC1` [Compound 338, 2-[3-[4-(1H-pyrrolo[2,3-b]pyridin-3-yl)piperidin-1-yl]sulfonylaze-tidin-1-yl]-1,3-benzoxazole], the 50% inhibitory concentration (IC50) was 10 to 100 nM.

As for `CC(C)(C)OC(=O)N1CC(S(=O)(=O)N2CCC(c3c[nH]c4cnccc34)CC2)C1` [Compound 339, tert-butyl 3-[4-(1H-pyrrolo[2,3-c]pyridin-3-yl)piperidin-1-yl]sulfonylaze-tidine-1-carboxylate], the IC50 was in the range of 1000 to 10000 nM.

For the compound `CN(C(=O)N1CC(S(=O)(=O)N2CCC(c3ccc(F)cc3)CC2)C1)C1CC1` [Compound 340, N-cyclopropyl-3-[4-(4-fluorophenyl)piperidin-1-yl]sulfonyl-N-methylazetidine-1-carboxamide], the concentration for half-maximal inhibition (IC50) was 1000 to 10000 nM.

Take `O=C(NC1(C(F)(F)F)CC1)N1CC(S(=O)(=O)N2CCC(c3ccc(Cl)cc3)CC2)C1` [Compound 341, 3-[4-(4-chlorophenyl)piperidin-1-yl]sulfonyl-N-[1-(trifluoromethyl)cyclopropyl] azetidine-1-carboxamide]: the IC50 lay within 10 to 100 nM.

Turning to `Cc1noc(C)c1CC(=O)N1CC(S(=O)(=O)N2CCC(c3ccc(F)cc3)CC2)C1` [Compound 342, 2-(3,5-dimethyl-1,2-oxazol-4-yl)-1-[3-[4-(4-fluorophenyl)piperidin-1-yl]sulfonylazetidin-1-yl]ethanone], the 50% inhibitory concentration (IC50) fell in the range of 10 to 100 nM.

With `CC(C)N(CC(=O)N1CC(S(=O)(=O)N2CCC(c3ccc(F)cc3)CC2)C1)C(C)C` [Compound 343, 2-[di(propan-2-yl)amino]-1-[3-[4-(4-fluorophenyl)piperidin-1-yl]sulfonylaze-tidin-l-yl]ethanone], the half-inhibitory concentration (IC50) lay in the range of 100 to 1000 nM.

As to `O=C(NC1(C(F)(F)F)CC1)[C@H]1C[C@H](S(=O)(=O)N2CCC(c3coc4cccnc34)CC2)C1` [Compound 345, trans-3-(4-furo[3,2-b]pyridin-3-ylpiperidin-1-yl)sulfonyl-N-[1-(trifluoromethyl)cyclopropyl] cyclobutane-1-carboxamide], the 50% inhibitory concentration (IC50) was in the range of 100 to 1000 nM.

Take `CC(C)(C)NC(=O)[C@H]1C[C@H](S(=O)(=O)N2CCC(c3coc4cccnc34)CC2)C1` [Compound 346, trans-N-tert-butyl-3-(4-furo[3,2-b]pyridin-3-ylpiperidin-1-yl) sulfonylcyclobutane-1-carboxamide]: the IC50 was 1000 to 10000 nM.

For the compound `Cc1noc(C)c1CC(=O)N1CC(S(=O)(=O)N2CCC(c3ccc(C#N)cc3)CC2)C1` [Compound 349, 4-[1-[1-[2-(3,5-dimethyl-1,2-oxazol-4-yl)acetyl]azetidin-3-yl]sulfonylpiper-idin-4-yl]benzonitrile], the half-maximal inhibitory concentration (IC50) was 10 to 100 nM.

Consider `CN(C(=O)N1CC(S(=O)(=O)N2CCC(c3ccc(C#N)cc3)CC2)C1)C1CC1` [Compound 350, 3-[4-(4-cyanophenyl)piperidin-1-yl]sulfonyl-N-cyclopropyl-N-methylazetidine-1-carboxamide], for which the IC50 fell in the range of 1000 to 10000 nM.

For `N#Cc1ccc(C2CCN(S(=O)(=O)C3CN(C(=O)CC(O)(C(F)(F)F)C(F)(F)F)C3)CC2)cc1` [Compound 351], the IC50 was 100 to 1000 nM.

`CC(C)(C)NC(=O)N1CC(S(=O)(=O)N2CCC(c3ccc(C#N)cc3)CC2)C1` [Compound 352, N-tert-butyl-3-[4-(4-cyanophenyl)piperidin-1-yl] sulfonylazetidine-1-carboxamide]: the 50% inhibitory concentration (IC50) lay in the range of 100 to 1000 nM.

With `O=S(=O)(C1CN(Cc2ccccc2OC(F)F)C1)N1CCC(c2ccccc2)CC1` [Compound 353, 1-[1-[[2-(difluoromethoxy)phenyl]methyl]azetidin-3-yl]sulfonyl-4-phenylpiperidine], the 50% inhibitory concentration (IC50) lay within 1000 to 10000 nM.

Take `Cc1ccc(C2CCN(S(=O)(=O)C3CN(C(=O)OC(C)(C)C)C3)CC2)c(C)c1` [Compound 354, tert-butyl 3-[4-(2,4-dimethylphenyl)piperidin-1-yl]sulfonylaze-tidine-1-carboxylate]: the IC50 fell in the range of 1000 to 10000 nM.

Take `O=C(NC1(C(F)(F)F)CC1)N1CC(S(=O)(=O)N2CCC(c3c[nH]c4cnccc34)CC2)C1` [Compound 355, 3-[4-(1H-pyrrolo[2,3-c]pyridin-3-yl)piperidin-1-yl]sulfonyl-N-[1-(trifluoromethyl)cyclopropyl] azetidine-1-carboxamide]: the IC50 fell in the range of 1000 to 10000 nM.

As for `O=S(=O)(C1CN(c2ccccn2)C1)N1CCC(c2c[nH]c3cccnc23)CC1` [Compound 356, 3-[1-(1-pyridin-2-ylazetidin-3-yl)sulfonylpiper-idin-4-yl]-1H-pyrrolo[3,2-b]pyridine], the IC50 fell in the range of 1000 to 10000 nM.

On to `CC(C)(C)OC(=O)N[C@H]1C[C@H](S(=O)(=O)N2CCC(c3c[nH]c4ncccc34)CC2)C1` [Compound 357, trans-tert-butyl-N-[3-[[4-(1H-pyrrolo[2,3-b]pyridin-3-yl)-1-piperidyl]sulfonyl]cyclobutyl]carbamate], for which the IC50 lay in the range of 10 to 100 nM.

Take `CC(C)(C)OC(=O)N[C@H]1C[C@@H](S(=O)(=O)N2CCC(c3c[nH]c4ncccc34)CC2)C1` [Compound 358, cis-tert-butyl-N-[3-[[4-(1H-pyrrolo[2,3-b]pyridin-3-yl)-1-piperidyl]sulfonyl]cyclobutyl]carbamate]: the half-inhibitory concentration (IC50) lay within 10 to 100 nM.

With `O=C(Nc1ccc(Cl)cc1Cl)N1CC(S(=O)(=O)N2CCC(c3coc4cccnc34)CC2)C1` [Compound 359, N-(2,4-dichlorophenyl)-3-(4-furo[3,2-b]pyridin-3-ylpiperidin-1-yl)sulfonylaze-tidine-1-carboxamide], the IC50 is 10 to 100 nM.
